The experiment relates to cotton aphid (Aphis gossypii). Description: Insecticidal test for cotton aphid in foliar spray assay on squash. In kind it is in vivo. The following applies: 200 ppm foliar spray on squash cotyledons; live aphids counted after 3 days; Corrected % Control (Abbott's formula); 4 replications. As to the method: The compounds identified in the foregoing examples were tested against cotton aphid using procedures described hereinafter. Insecticidal Test for Cotton Aphid (Aphis gossypii) in Foliar Spray Assay Squash seedlings with fully expanded cotyledon leaves were trimmed to one cotyledon per plant and infested with cotton aphid (wingless adults and nymphs) 1 day prior to chemical application. Each plant was examined before chemical application to ensure uniform infestation (ca. 30-70 aphids per plant). Compounds (2 mg) were dissolved in 2 mL of acetone/methanol (1:1) solvent, forming stock solutions of 1000 ppm. The stock solutions were diluted 5× with 0.025% Tween 20 in H2O to obtain a solution at 200 ppm. A hand-held Devilbiss aspirator type sprayer was used to apply the spray solutions until runoff to both sides of the squash cotyledon leaves. Four plants (4 replications) were used for each compound. Reference plants (solvent check) were sprayed with the diluent only. Treated plants were held in a holding room for 3 days at approximately 23° C. and 40% relative humidity (RH) before the number of live aphids on each plant was recorded. Insecticidal activity was measured by Corrected % Control using Abbott's correction formula and presented in Table 1-Activity: Corrected % Control=100*(X−Y)/X • where X=No. of live aphids on solvent check plants • Y=No. of live aphids on treated plants Results are shown in Table 1.

Regarding `CC(c1cnc(Cl)nc1)S(C)(=O)=NC#N` (stereo not drawn) [Compound 1, [1-(2-chloropyrimidin-5-yl)ethyl](methyl)oxido-λ^4-sulfanylidenecyanamide], the “% Control at ppm, against cotton aphid on squash (foliar spray)” value is “A (80-100)”. For `CS(=O)(Cc1ccc(Cl)nn1)=NC#N` (stereo not drawn) [Compound 2, [(3-chloropyridazin-6-yl)methyl](methyl)oxido-λ^4-sulfanylidenecyanamide] the value was “A (80-100)”; for `CC(c1cnc(C(F)(F)F)nc1)S(C)(=O)=NC#N` (stereo not drawn) [Compound 3, methyl(oxido){1-[2-(trifluoromethyl)pyrimidin-5-yl]ethyl}-λ^4-sulfanylidenecyanamide], “A (80-100)”.
